Among the data in patent publication US20200017490A1, “Novel Mesoionic Insecticidal Compound” (Nippon Kayaku Kabushiki Kaisha, priority 2016, published 2020) are mortality values, retold here.

Test in all cases: whole plant or invertebrate
Holding throughout (type): in vivo

The subject of test [1] is Brown Planthopper (Nilaparvata lugens). As to conditions: foliar, 120 h, rice seedling foliage dipping, third instar larvae, 5 days after the treatment, 25° C. The method, then: Biological Test Example 3: Test (Foliage Dipping) for Controlling Brown Planthopper (Nilaparvata lugens)
Ten sampled rice seedlings were dipped in the chemical solution of the test compounds diluted with water to 200 ppm in an amount of 20 mL and air-dried. After air-drying, the rice seedlings held with urethane in a glass cylinder having an inner diameter of 4.5 cm and a length of 14 cm were set up in a plastic cup containing 40 mL of water. Larvae of brown planthoppers in the third instar larva were released in the glass cylinder. The cylinder was covered with a lid of medicine paper and kept in a chamber at a constant temperature of 25° C. for rearing.

Test [2] shares this test system. As to conditions: rice seedling root dipping, third instar larvae released after 2 days, 5 days after the treatment, 25° C. The method, then: Biological Test Example 4: Test (Root Dipping) for Controlling Brown Planthopper (Nilaparvata lugens)
Ten sampled rice seedlings held with urethane in a glass cylinder having an inner diameter of 4.5 cm and a length of 14 cm were set up in a plastic cup containing 40 mL of chemical solution diluted with water to 0.8 ppm. After 2 days, 10 larvae of brown planthoppers in the third instar larva were released in the glass cylinder. The glass cylinder was covered with a lid of medicine paper and kept in a chamber at a constant temperature of 25° C. for rearing.

Test [3] relates to Diamondback Moth (Plutella xylostella). The settings on record: foliar, 120 h, cabbage leaf dipping, third instar larvae, 5 days after the treatment, 25° C. The method, then:
Biological Test Example 2: Test (Foliage Dipping) for Controlling Diamondback Moth (Plutella xylostella)
A cabbage leaf cut to a diameter of 5.0 cm was dipped in the diluent of the test compounds diluted with water to 200 ppm in an amount of 20 mL and air-dried. After air-drying, the cabbage leaf was placed in a plastic cup, and 10 larvae of diamondback moths in the third instar larva were released there. The cup was covered with a lid and kept in a chamber at a constant temperature of 25° C. for rearing.

Test [4] deals with Cotton Aphid (Aphis gossypii). As to conditions: 120 h, foliar spraying on cucumber leaf, cotton aphid offspring, 5 days after the treatment, 25° C. Here is the method: Biological Test Example 1: Test (Foliar Spraying) for Controlling Cotton Aphid (Aphis gossypii)
A cucumber leaf cut to a diameter of 3.5 cm was placed on cotton wool moistened with water. Two adult cotton aphids were released there for offspring for 24 hours and the adult insects were then removed. The diluent of the test compounds diluted with water to 200 ppm in an amount of 2 mL was sprayed onto the cucumber leaves with a spray tower. After air-drying, the sample with cotton wool was placed in a plastic cup, which was covered with a lid and kept in a chamber at a constant temperature of 25° C. for rearing.

For test [5], the system named is Southern Yellow thrips (Thrips palmi). As to conditions: 72 h, foliar spraying on cucumber leaf, first instar larvae, 3 days after the treatment, 25° C. The method, then: Biological Test Example 5: Test (Foliar Spraying) for Controlling Southern Yellow thrips (Thrips palmi)
A cucumber leaf cut to a diameter of 1.5 cm was placed on cotton wool moistened with water. The diluent of the test compounds diluted with water to 200 ppm in an amount of 2 mL was sprayed onto the cucumber leaves with a spray tower. After air-drying, 5 larvae of southern yellow thrips in the first instar larva were released there and placed with cotton wool in a plastic cup, which was covered with a lid and kept in a chamber at a constant temperature of 25° C. for rearing.

Some results are limits rather than exact numbers.

In turn, `CC(C)=CCON=CCC[n+]1c([O-])c(CC=C(C)C)c(=O)n2ccccc21` [Compound K-7] came in with a mortality at 200 ppm in test [1] of at least 80%.
As for `COc1cccc(-c2c(O)[n+](CCC=N[N+](C)(C)C)c3ccccn3c2=O)c1` [Compound K-1], in test [1], the mortality at 200 ppm is at least 80%.
On the same count and under the same terms, the result for `C=CCc1c([O-])[n+](CCC=NOC(C)OCC)c2ccccn2c1=O` (stereo not shown) [Compound K-9] reads at least 80%; that for `O=c1c(-c2ccccc2)c([O-])[n+](CCC=NOC2COCCO2)c2ccccn12` (stereo not shown) [Compound K-10], at least 80%.
On to `O=c1c(-c2cccc(C(F)(F)F)c2)c([O-])[n+](CCC=NOc2ccc(Cl)nc2)c2ccccn12` [Compound K-2], for which, in test [2], the mortality at 0.8 ppm was at least 80%. Moreover, the mortality at 200 ppm in test [3], in test [4] and in test [5] was at least 80% each time.
Consider `CCOC(C)ON=CCC[n+]1c([O-])c(CC=C(C)C)c(=O)n2ccccc21` (stereo not shown) [Compound K-8], for which, in test [1], the mortality at 200 ppm is at least 80%.
`CC(C)(C)[S+]([O-])N=CCC[n+]1c([O-])c(-c2cccc(C(F)(F)F)c2)c(=O)n2ccccc21` (stereo not shown) [Compound K-3] displayed a mortality at 200 ppm in test [1] of at least 80%.

What is called mortality is the share of the test organisms that died.
